In patent US10442796B2, “2,3,5-substituted thiophene compound as protein kinase inhibitor” (KOREA INSTITUTE OF SCIENCE AND TECHNOLOGY, priority 2016, dated 2019):

Assays:
Test in all cases: Kinase inhibitory activity, full kinase panel
Type in all cases: biochemical
Details in all cases: single concentration of 1 μM, read-out: %Inhibitory ability
[1] = target: RIPK4 (Homo sapiens, UniProt P57078)
Experimental: (§1) In order to measure inhibitory activity (% inhibitory ability) against a protein kinase with respect to the compound of the present invention, a biochemical assay was performed in a full kinase panel shown in the following Table 1. As an experimental compound, the (S)-5-((3-fluorophenyl)ethynyl)-N-(piperidin-3-yl)-3-ureidothiophene-2-carboxamide synthesized in Example 24 was used.

[2] = target: PDGFRB (Homo sapiens, UniProt P09619)
Experimental: as §1

[3] = target: PHKG1 (Homo sapiens, UniProt Q16816)
Sequence of PHKG1 (Q16816 whole entry): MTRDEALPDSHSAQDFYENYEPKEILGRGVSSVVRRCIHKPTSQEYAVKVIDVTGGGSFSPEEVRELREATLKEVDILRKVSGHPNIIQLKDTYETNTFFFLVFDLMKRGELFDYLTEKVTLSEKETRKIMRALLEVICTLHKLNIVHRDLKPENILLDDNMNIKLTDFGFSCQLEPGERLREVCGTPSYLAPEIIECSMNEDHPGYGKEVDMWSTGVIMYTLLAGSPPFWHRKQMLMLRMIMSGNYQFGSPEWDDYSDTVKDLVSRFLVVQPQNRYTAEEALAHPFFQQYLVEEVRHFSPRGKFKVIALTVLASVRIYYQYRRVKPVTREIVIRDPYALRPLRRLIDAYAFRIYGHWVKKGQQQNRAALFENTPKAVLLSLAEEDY
Experimental: as §1

[4] = target: RIOK3 (Homo sapiens, UniProt O14730)
Experimental: as §1

[5] = target: PRKG2 (Homo sapiens, UniProt Q13237)
Experimental: as §1

[6] = target: PAK4 (Homo sapiens, UniProt O96013)
Experimental: as §1

[7] = target: BUB1 (Homo sapiens, UniProt O43683)
Experimental: as §1

[8] = target: YANK2 (Homo sapiens, UniProt Q9NY57)
Sequence of YANK2 (Q9NY57 whole entry, species assumed): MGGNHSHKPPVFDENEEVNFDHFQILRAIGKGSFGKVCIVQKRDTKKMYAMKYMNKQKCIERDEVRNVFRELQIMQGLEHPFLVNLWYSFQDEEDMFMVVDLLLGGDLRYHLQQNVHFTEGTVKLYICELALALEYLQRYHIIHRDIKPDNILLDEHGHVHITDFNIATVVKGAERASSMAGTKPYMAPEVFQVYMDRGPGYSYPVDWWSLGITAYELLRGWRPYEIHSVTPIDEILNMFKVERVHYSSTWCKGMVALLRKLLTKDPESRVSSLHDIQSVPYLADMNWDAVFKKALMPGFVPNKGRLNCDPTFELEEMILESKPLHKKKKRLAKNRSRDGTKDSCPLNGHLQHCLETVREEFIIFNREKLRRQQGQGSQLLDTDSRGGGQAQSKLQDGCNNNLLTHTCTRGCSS
Experimental: as §1

[9] = target: PHKG2 (Homo sapiens, UniProt P15735)
Sequence of PHKG2 (P15735 whole entry): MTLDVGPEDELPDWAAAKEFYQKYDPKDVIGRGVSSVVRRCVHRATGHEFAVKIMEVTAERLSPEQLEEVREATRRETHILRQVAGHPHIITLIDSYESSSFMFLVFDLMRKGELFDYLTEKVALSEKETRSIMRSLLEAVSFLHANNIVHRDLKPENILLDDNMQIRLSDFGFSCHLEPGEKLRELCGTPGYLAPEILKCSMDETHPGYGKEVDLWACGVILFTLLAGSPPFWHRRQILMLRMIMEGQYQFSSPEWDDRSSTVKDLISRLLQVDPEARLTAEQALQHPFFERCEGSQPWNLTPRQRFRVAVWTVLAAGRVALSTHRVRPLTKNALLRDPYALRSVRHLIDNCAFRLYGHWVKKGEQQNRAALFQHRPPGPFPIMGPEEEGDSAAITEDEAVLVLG
Experimental: as §1

[10] = target: MST2 (Homo sapiens, UniProt Q13188)
Experimental: as §1

[11] = target: DAPK3 (Homo sapiens, UniProt O43293)
Experimental: as §1

[12] = target: IRAK1 (Homo sapiens, UniProt P51617)
Experimental: as §1

[13] = target: HCK (Homo sapiens, UniProt P08631)
Experimental: as §1

[14] = target: MST1 (Homo sapiens, UniProt Q13043)
Sequence of MST1 (Q13043 whole entry): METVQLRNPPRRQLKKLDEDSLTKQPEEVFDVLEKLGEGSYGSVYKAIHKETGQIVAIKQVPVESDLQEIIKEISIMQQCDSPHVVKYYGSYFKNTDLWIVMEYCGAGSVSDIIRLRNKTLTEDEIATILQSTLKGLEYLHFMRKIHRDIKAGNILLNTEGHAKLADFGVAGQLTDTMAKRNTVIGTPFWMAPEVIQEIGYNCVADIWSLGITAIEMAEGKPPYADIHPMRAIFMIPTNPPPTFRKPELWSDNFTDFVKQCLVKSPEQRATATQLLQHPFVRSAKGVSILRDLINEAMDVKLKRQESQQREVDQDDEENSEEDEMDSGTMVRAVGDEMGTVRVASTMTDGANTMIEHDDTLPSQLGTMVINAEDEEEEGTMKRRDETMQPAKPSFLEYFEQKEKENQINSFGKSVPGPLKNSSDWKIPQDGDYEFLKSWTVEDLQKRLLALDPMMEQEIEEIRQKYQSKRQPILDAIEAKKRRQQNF
Experimental: as §1

[15] = target: LCK (Homo sapiens, UniProt P06239)
Experimental: as §1

[16] = target: MAPKAPK5 (Homo sapiens, UniProt Q8IW41)
Sequence of MAPKAPK5 (Q8IW41 whole entry, species assumed): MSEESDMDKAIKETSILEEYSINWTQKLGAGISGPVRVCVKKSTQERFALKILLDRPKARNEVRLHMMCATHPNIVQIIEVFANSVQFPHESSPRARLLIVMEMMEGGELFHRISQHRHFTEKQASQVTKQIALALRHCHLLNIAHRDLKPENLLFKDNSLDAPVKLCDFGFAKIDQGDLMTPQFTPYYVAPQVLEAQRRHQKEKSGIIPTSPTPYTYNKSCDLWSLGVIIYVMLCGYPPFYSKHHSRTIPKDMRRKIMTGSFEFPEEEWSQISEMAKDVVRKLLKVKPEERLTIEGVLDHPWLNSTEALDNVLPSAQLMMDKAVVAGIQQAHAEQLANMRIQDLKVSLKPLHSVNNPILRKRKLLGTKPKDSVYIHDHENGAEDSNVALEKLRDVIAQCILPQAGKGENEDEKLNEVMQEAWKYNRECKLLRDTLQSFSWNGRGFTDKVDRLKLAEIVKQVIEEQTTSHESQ
Experimental: as §1

[17] = target: AAK1 (Homo sapiens, UniProt Q2M2I8)
Experimental: as §1

[18] = target: MLK3 (Homo sapiens, UniProt Q16584)
Experimental: as §1

[19] = target: HPK1 (Homo sapiens, UniProt Q92918)
Experimental: as §1

[20] = target: PAK6 (Homo sapiens, UniProt Q9NQU5)
Experimental: as §1

[21] = target: ULK1 (Homo sapiens, UniProt O75385)
Experimental: as §1

[22] = target: PRKX (Homo sapiens, UniProt P51817)
Experimental: as §1

[23] = target: MST4 (Homo sapiens, UniProt Q9P289)
Sequence of MST4 (Q9P289 whole entry): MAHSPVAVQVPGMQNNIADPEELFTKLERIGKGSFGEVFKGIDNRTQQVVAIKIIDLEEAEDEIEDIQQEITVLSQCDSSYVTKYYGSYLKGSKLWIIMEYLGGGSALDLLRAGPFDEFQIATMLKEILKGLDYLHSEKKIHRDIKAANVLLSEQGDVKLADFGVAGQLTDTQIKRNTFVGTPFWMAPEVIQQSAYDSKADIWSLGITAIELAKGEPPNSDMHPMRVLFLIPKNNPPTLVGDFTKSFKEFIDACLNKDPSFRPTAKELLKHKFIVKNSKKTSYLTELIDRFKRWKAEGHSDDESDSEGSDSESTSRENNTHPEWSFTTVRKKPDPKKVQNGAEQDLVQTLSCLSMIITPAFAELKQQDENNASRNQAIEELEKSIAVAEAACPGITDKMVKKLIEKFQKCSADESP
Experimental: as §1

[24] = target: JAK2 (Homo sapiens, UniProt O60674)
Experimental: as §1

[25] = target: DLK (Homo sapiens, UniProt Q12852)
Experimental: as §1

[26] = target: DAPK1 (Homo sapiens, UniProt P53355)
Experimental: as §1

[27] = target: TRKA (Homo sapiens, UniProt P04629)
Experimental: as §1

[28] = target: DCAMKL1 (Homo sapiens, UniProt O15075)
Experimental: as §1

[29] = target: MEK5 (Homo sapiens, UniProt Q13163)
Experimental: as §1

[30] = target: JAK3 (Homo sapiens, UniProt P52333)
Experimental: as §1

[31] = target: CHEK2 (Homo sapiens, UniProt O96017)
Experimental: as §1

[32] = target: LOK (Homo sapiens, UniProt O94804)
Experimental: as §1

[33] = target: MAP4K4 (Homo sapiens, UniProt O95819)
Sequence of MAP4K4 (O95819 whole entry, species assumed): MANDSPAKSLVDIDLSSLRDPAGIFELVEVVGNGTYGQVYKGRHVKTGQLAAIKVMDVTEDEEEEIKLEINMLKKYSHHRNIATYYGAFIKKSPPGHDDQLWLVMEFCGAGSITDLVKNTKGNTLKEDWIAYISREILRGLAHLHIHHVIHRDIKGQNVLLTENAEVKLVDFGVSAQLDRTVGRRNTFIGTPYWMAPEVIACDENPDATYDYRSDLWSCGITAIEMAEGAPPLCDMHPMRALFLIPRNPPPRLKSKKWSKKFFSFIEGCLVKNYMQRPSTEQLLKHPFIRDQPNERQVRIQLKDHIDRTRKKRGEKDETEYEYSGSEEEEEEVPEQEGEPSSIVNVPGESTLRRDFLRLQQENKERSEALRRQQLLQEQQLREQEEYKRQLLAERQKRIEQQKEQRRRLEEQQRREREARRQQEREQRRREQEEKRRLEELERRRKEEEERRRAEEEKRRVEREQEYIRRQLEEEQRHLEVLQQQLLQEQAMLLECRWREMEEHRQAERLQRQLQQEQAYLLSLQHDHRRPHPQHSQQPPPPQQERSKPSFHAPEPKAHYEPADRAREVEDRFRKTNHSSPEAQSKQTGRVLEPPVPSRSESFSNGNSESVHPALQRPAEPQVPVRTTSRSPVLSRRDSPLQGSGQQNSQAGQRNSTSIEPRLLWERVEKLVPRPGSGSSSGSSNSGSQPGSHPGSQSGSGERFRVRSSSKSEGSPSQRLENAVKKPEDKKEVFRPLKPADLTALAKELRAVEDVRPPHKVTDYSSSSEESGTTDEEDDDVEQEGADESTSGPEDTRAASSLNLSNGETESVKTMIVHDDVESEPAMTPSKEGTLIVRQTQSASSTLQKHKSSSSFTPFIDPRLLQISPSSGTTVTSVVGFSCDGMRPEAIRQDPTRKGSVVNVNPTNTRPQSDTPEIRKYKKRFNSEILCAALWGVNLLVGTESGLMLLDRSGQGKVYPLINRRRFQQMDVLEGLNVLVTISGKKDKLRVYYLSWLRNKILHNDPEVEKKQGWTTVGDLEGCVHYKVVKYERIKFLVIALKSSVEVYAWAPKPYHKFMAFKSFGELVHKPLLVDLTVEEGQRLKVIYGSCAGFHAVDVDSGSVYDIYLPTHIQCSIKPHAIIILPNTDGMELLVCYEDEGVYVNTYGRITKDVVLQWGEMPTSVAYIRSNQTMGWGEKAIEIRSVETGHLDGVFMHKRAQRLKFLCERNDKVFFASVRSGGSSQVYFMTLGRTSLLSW
Experimental: as §1

[34] = target: MAP3K2 (Homo sapiens, UniProt Q9Y2U5)
Experimental: as §1

[35] = target: TSSK3 (Homo sapiens, UniProt Q96PN8)
Experimental: as §1

[36] = target: TXK (Homo sapiens, UniProt P42681)
Experimental: as §1

[37] = target: AXL (Homo sapiens, UniProt P30530)
Experimental: as §1

[38] = target: MEK1 (Homo sapiens, UniProt Q02750)
Sequence of MEK1 (Q02750 whole entry, species assumed): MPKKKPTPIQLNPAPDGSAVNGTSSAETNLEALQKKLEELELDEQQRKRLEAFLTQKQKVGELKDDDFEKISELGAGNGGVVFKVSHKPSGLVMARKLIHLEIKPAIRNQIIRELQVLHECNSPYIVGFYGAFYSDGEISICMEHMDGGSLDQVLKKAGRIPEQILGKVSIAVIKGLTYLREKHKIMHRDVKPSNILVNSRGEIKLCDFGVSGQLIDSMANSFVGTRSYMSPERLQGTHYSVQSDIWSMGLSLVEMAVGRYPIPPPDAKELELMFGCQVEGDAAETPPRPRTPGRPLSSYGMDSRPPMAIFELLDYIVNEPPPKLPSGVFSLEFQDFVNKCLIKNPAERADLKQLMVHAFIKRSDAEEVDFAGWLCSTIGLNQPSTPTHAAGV
Experimental: as §1

[39] = target: MLK1 (Homo sapiens, UniProt P80192)
Experimental: as §1

[40] = target: MARK2 (Homo sapiens, UniProt Q7KZI7)
Sequence of MARK2 (Q7KZI7 whole entry, species assumed): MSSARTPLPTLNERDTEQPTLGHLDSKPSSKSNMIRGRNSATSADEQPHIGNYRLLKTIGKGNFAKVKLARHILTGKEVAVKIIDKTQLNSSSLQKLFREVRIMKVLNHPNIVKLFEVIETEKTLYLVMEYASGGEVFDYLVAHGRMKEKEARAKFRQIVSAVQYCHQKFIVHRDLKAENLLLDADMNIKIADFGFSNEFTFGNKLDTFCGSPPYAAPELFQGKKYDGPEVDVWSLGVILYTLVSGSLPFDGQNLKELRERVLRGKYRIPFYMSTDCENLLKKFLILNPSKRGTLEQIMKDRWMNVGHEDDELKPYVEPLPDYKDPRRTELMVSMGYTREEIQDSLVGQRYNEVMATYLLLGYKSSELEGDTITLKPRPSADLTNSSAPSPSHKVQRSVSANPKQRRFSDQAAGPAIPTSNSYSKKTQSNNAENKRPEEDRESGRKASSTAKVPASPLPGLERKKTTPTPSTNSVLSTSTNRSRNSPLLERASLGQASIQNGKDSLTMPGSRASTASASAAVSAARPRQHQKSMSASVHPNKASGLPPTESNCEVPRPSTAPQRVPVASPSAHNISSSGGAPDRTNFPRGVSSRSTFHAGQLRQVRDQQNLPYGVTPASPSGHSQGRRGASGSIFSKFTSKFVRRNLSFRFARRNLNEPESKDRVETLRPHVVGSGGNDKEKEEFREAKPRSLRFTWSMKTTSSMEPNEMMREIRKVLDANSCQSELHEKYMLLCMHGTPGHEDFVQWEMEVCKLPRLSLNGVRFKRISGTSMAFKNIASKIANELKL
Experimental: as §1

[41] = target: KIT (Homo sapiens, UniProt P10721)
Experimental: as §1

[42] = target: FGR (Homo sapiens, UniProt P09769)
Experimental: as §1

Cc1ccc(C#Cc2cc(NC(N)=O)c(C(=O)N[C@H]3CCCNC3)s2)cc1 [Example 24, (S)—N-(piperidin-3-yl)-5-(p-tolylethynyl)-3-ureidothiophene-2-carboxamide]
inhibition at 1 µM [1]: 97.6% | inhibition at 1 µM [2]: 99.9% | inhibition at 1 µM [3]: 98.4% | inhibition at 1 µM [4]: 79% | inhibition at 1 µM [5]: 96.6% | inhibition at 1 µM [6]: 92.2% | inhibition at 1 µM [7]: 97.4% | inhibition at 1 µM [8]: 76% | inhibition at 1 µM [9]: 89% | inhibition at 1 µM [10]: 92.5% | inhibition at 1 µM [11]: 84% | inhibition at 1 µM [12]: 90.7% | inhibition at 1 µM [13]: 94.9% | inhibition at 1 µM [14]: 96.6% | inhibition at 1 µM [15]: 72% | inhibition at 1 µM [16]: 82% | inhibition at 1 µM [17]: 80% | inhibition at 1 µM [18]: 90.8% | inhibition at 1 µM [19]: 78% | inhibition at 1 µM [20]: 90.3% | inhibition at 1 µM [21]: 99.8% | inhibition at 1 µM [22]: 73% | inhibition at 1 µM [23]: 83% | inhibition at 1 µM [24]: 83% | inhibition at 1 µM [25]: 68% | inhibition at 1 µM [26]: 94.4% | inhibition at 1 µM [27]: 100% | inhibition at 1 µM [28]: 80% | inhibition at 1 µM [29]: 99.9% | inhibition at 1 µM [30]: 91.1% | inhibition at 1 µM [31]: 100% | inhibition at 1 µM [32]: 71% | inhibition at 1 µM [33]: 91.4% | inhibition at 1 µM [34]: 97.7% | inhibition at 1 µM [35]: 72% | inhibition at 1 µM [36]: 83% | inhibition at 1 µM [37]: 87% | inhibition at 1 µM [38]: 96.3% | inhibition at 1 µM [39]: 95.9% | inhibition at 1 µM [40]: 79% | inhibition at 1 µM [41]: 99.8% | inhibition at 1 µM [42]: 94.1%
